According to paper PMC2784992 (Nature chemical biology, 2009):

Tested on: Plasmodium falciparum lines, progeny, field isolates and transfected parasites
Details: 0.8 µM verapamil with DHMS

## COc1ccc(CCN(C)CCCC(C#N)(c2ccc(OC)c(OC)c2)C(C)C)cc1OC (stereo not shown) [verapamil]
  effect on parasite response to 1: did not have any effect
